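Where inhibition never reached the appropriate level, the endpoint shown equals the highest concentration tested. Otherwise, values were interpolated linearly from a five-concentration, 48-hour dose response in 96-well plates. The concentration for 50% growth inhibition is given as GI50.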 The source made the active and inactive calls. Cut-off read from the data, not from the text of the source: active = GI50 up to about 1.1 µM and inactive = higher.
Tests used:
Test in all cases: NCI-60 cell line screen, 48 h
SK-MEL-28 = test system: SK-MEL-28
COLO 205 = test system: COLO 205
OVCAR-3 = test system: OVCAR-3
A549 = test system: A549
CCRF-CEM = test system: CCRF-CEM
U-251 = test system: U-251
DU-145 = test system: DU-145
OVCAR-5 = test system: OVCAR-5
MOLT-4 = test system: MOLT-4
Hs-578T = test system: Hs-578T
NCI-H226 = test system: NCI-H226
A498 = test system: A498
HCT-116 = test system: HCT-116
MCF7 = test system: MCF7
OVCAR-8 = test system: OVCAR-8
SF-539 = test system: SF-539
HT-29 = test system: HT-29
HCT-15 = test system: HCT-15
SN12C = test system: SN12C
PC-3 = test system: PC-3
SF-268 = test system: SF-268
UO-31 = test system: UO-31
SNB-19 = test system: SNB-19
NCI-H460 = test system: NCI-H460
TK-10 = test system: TK-10
SNB-75 = test system: SNB-75
SW-620 = test system: SW-620
BT-549 = test system: BT-549
SK-MEL-5 = test system: SK-MEL-5
CAKI-1 = test system: CAKI-1
HOP-62 = test system: HOP-62
K562 = test system: K562
SK-OV-3 = test system: SK-OV-3
MDA-N = test system: MDA-N
HOP-92 = test system: HOP-92
T47D = test system: T47D
HL-60 = test system: HL-60
HCC 2998 = test system: HCC 2998
SK-MEL-2 = test system: SK-MEL-2
786-0 = test system: 786-0
OVCAR-4 = test system: OVCAR-4
ACHN = test system: ACHN
SF-295 = test system: SF-295
M14 = test system: M14
LOX IMVI = test system: LOX IMVI
MDA-MB-435 = test system: MDA-MB-435
SR = test system: SR
NCI-H522 = test system: NCI-H522
RPMI-8226 = test system: RPMI-8226
RXF 393 = test system: RXF 393
NCI-H23 = test system: NCI-H23
EKVX = test system: EKVX
MDA-MB-231 = test system: MDA-MB-231
IGROV-1 = test system: IGROV-1
KM12 = test system: KM12
Malme-3M = test system: Malme-3M
NCI/ADR-RES = test system: NCI/ADR-RES
UACC-62 = test system: UACC-62
UACC-257 = test system: UACC-257

## CC(C)(Cl)C(Cl)CC/C(CBr)=C(\Cl)CCl (centres undefined)
SK-MEL-28
  GI50: 2.92 µM (inactive)
COLO 205
  GI50: 4.89 µM (inactive)
OVCAR-3
  GI50: 4.48 µM (inactive)
A549
  GI50: 18 µM (inactive)
CCRF-CEM
  GI50: 0.294 µM (active)
U-251
  GI50: 4.24 µM (inactive)
DU-145
  GI50: 13.4 µM (inactive)
OVCAR-5
  GI50: 14.7 µM (inactive)
MOLT-4
  GI50: 0.491 µM (active)
Hs-578T
  GI50: 5.32 µM (inactive)
NCI-H226
  GI50: 4.69 µM (inactive)
A498
  GI50: 19.4 µM (inactive)
HCT-116
  GI50: 3.93 µM (inactive)
MCF7
  GI50: 11 µM (inactive)
OVCAR-8
  GI50: 3.17 µM (inactive)
SF-539
  GI50: 4.86 µM (inactive)
HT-29
  GI50: 2.82 µM (inactive)
HCT-15
  GI50: 1.97 µM
SN12C
  GI50: 3.52 µM (inactive)
PC-3
  GI50: 7.31 µM (inactive)
SF-268
  GI50: 7.8 µM (inactive)
UO-31
  GI50: 6.53 µM (inactive)
SNB-19
  GI50: 17.6 µM (inactive)
NCI-H460
  GI50: 12.7 µM (inactive)
TK-10
  GI50: 14.1 µM (inactive)
SNB-75
  GI50: 4.45 µM (inactive)
SW-620
  GI50: 1.96 µM (inactive)
BT-549
  GI50: 1.84 µM (inactive)
SK-MEL-5
  GI50: 2.31 µM (inactive)
CAKI-1
  GI50: 5.09 µM (inactive)
HOP-62
  GI50: 11.8 µM (inactive)
K562
  GI50: 0.678 µM (active)
SK-OV-3
  GI50: 6 µM (inactive)
MDA-N
  GI50: 2.21 µM (inactive)
HOP-92
  GI50: 10.4 µM (inactive)
T47D
  GI50: 1.82 µM (inactive)
HL-60
  GI50: 0.582 µM (active)
HCC 2998
  GI50: 14.4 µM (inactive)
SK-MEL-2
  GI50: 2.47 µM (inactive)
786-0
  GI50: 2.55 µM (inactive)
OVCAR-4
  GI50: 2.79 µM (inactive)
ACHN
  GI50: 14.9 µM (inactive)
SF-295
  GI50: 16.3 µM (inactive)
M14
  GI50: 1.81 µM (inactive)
LOX IMVI
  GI50: 0.406 µM (active)
MDA-MB-435
  GI50: 3.36 µM (inactive)
SR
  GI50: 0.485 µM (active)
NCI-H522
  GI50: 0.658 µM (active)
RPMI-8226
  GI50: 1.89 µM (inactive)
RXF 393
  GI50: 10.6 µM (inactive)
NCI-H23
  GI50: 3.87 µM (inactive)
EKVX
  GI50: 17.7 µM (inactive)
MDA-MB-231
  GI50: 2.57 µM (inactive)
IGROV-1
  GI50: 2.04 µM (inactive)
KM12
  GI50: 7.01 µM (inactive)
Malme-3M
  GI50: 6.85 µM (inactive)
NCI/ADR-RES
  GI50: 5.81 µM (inactive)
UACC-62
  GI50: 1.67 µM (inactive)
UACC-257
  GI50: 3.25 µM (inactive)

Reference: ChEMBL document CHEMBL1201862, “PubChem BioAssay data set” (2004)
